Experimental data taken from PubChem BioAssay (NCI).
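Step 1: Grow cells in 96-well plates. Step 2: Expose to compound for 48 hours at 5 concentrations. Step 3: Interpolate endpoints linearly; if unreached, use highest concentration. At the GI50, growth is halved. At the TGI there is no net growth.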

Tests used:
Test in all cases: inhibition of tumour cell growth, NCI panel, 48 h
MOLT-4 leukemia = test system: MOLT-4 leukemia
SK-MEL-5 melanoma = test system: SK-MEL-5 melanoma
HCC-2998 colon = test system: HCC-2998 colon
SF-268 CNS = test system: SF-268 CNS
OVCAR-3 ovarian = test system: OVCAR-3 ovarian
NCI/ADR-RES ovarian = test system: NCI/ADR-RES ovarian
786-0 renal = test system: 786-0 renal
SF-295 CNS = test system: SF-295 CNS
NCI-H23 lung = test system: NCI-H23 lung
UO-31 renal = test system: UO-31 renal
OVCAR-5 ovarian = test system: OVCAR-5 ovarian
EKVX NSCLC = test system: EKVX NSCLC
SK-OV-3 ovarian = test system: SK-OV-3 ovarian
HOP-62 NSCLC = test system: HOP-62 NSCLC
COLO 205 colon = test system: COLO 205 colon
CAKI-1 renal = test system: CAKI-1 renal
M14 melanoma = test system: M14 melanoma
OVCAR-8 ovarian = test system: OVCAR-8 ovarian
HL-60(TB) leukemia = test system: HL-60(TB) leukemia
SNB-19 CNS = test system: SNB-19 CNS
UACC-62 melanoma = test system: UACC-62 melanoma
NCI-H522 lung = test system: NCI-H522 lung
DU-145 prostate = test system: DU-145 prostate
MDA-MB-231 breast = test system: MDA-MB-231 breast
HT29 colon = test system: HT29 colon
SW-620 colon = test system: SW-620 colon
SNB-75 CNS = test system: SNB-75 CNS
IGROV1 ovarian = test system: IGROV1 ovarian
TK-10 renal = test system: TK-10 renal

`CN1CCN(Cc2ccc(NC(=O)c3cncc(C#Cc4cnc5ccc(N6CCOCC6)nn45)c3)cc2C(F)(F)F)CC1` gave a TGI (MOLT-4 leukemia) of 1460 nM, a GI50 (SK-MEL-5 melanoma) of 225 nM and a TGI (SK-MEL-5 melanoma) of 814 nM. The GI50 (HCC-2998 colon) was 130 nM, the TGI (HCC-2998 colon) was 474 nM and the GI50 (SF-268 CNS) was 82.3 nM. For the same compound, the TGI (SF-268 CNS) was 218 nM, the GI50 (OVCAR-3 ovarian) was 99.4 nM and the TGI (OVCAR-3 ovarian) was 407 nM. It also gave a GI50 (NCI/ADR-RES ovarian) of 814 nM, a TGI (NCI/ADR-RES ovarian) of 3750 nM and a GI50 (786-0 renal) of 144 nM. For the same compound, the TGI (786-0 renal) was 433 nM, the GI50 (SF-295 CNS) was 140 nM and the TGI (SF-295 CNS) was 686 nM. For the same compound, the GI50 (NCI-H23 lung) was 79.6 nM, the TGI (NCI-H23 lung) was 325 nM and the GI50 (UO-31 renal) was 135 nM. For the same compound, the TGI (UO-31 renal) was 359 nM, the GI50 (OVCAR-5 ovarian) was 85.8 nM and the TGI (OVCAR-5 ovarian) was 548 nM. It also gave a GI50 (EKVX NSCLC) of 101 nM, a TGI (EKVX NSCLC) of 564 nM and a GI50 (SK-OV-3 ovarian) of 144 nM. The TGI (SK-OV-3 ovarian) was 405 nM, the GI50 (HOP-62 NSCLC) was 100 nM and the TGI (HOP-62 NSCLC) was 328 nM. For the same compound, the GI50 (COLO 205 colon) was 53.6 nM, the TGI (COLO 205 colon) was 129 nM and the GI50 (CAKI-1 renal) was 51.9 nM. The TGI (CAKI-1 renal) was 174 nM, the GI50 (M14 melanoma) was 50.6 nM and the TGI (M14 melanoma) was 122 nM. The GI50 (OVCAR-8 ovarian) was 134 nM, the TGI (OVCAR-8 ovarian) was 541 nM and the GI50 (HL-60(TB) leukemia) was 23.9 nM. It also gave a TGI (HL-60(TB) leukemia) of 224 nM, a GI50 (SNB-19 CNS) of 163 nM and a TGI (SNB-19 CNS) of 686 nM. The GI50 (UACC-62 melanoma) was 86.3 nM, the TGI (UACC-62 melanoma) was 419 nM and the GI50 (NCI-H522 lung) was 68 nM. It also gave a TGI (NCI-H522 lung) of 161 nM, a GI50 (DU-145 prostate) of 93.6 nM and a TGI (DU-145 prostate) of 398 nM. It also gave a GI50 (MDA-MB-231 breast) of 33 nM, a TGI (MDA-MB-231 breast) of 204 nM and a GI50 (HT29 colon) of 31.3 nM. The TGI (HT29 colon) was 392 nM, the GI50 (SW-620 colon) was 49.7 nM and the TGI (SW-620 colon) was 378 nM. The GI50 (SNB-75 CNS) was 47.7 nM, the TGI (SNB-75 CNS) was 155 nM and the GI50 (IGROV1 ovarian) was 46.8 nM. For the same compound, the TGI (IGROV1 ovarian) was 430 nM, the GI50 (TK-10 renal) was 79.9 nM and the TGI (TK-10 renal) was 229 nM.
